According to patent US10183919B2 (priority 2014, dated 2019):
Where a name gives a salt, the structure may show the parent alone.

These compounds were tested against T1, Human MOR (Homo sapiens, UniProt P35372) (assay: cell-based). Conditions: not given.
T1 construct: expressed in transfected cells; host or cells: HEK-293T
Description: Transfection. Human or mouse MOR cDNA was transfected alongside GαoB with RLuc8 inserted at position 91 (GαoB-RLuc8), Gβ1 (β1), and Gγ2 fused to the full-length mVenus at its N terminus (mVenus-γ2) into HEK-293T cells (5×10^6 cells/plate) in 10-cm dishes using PEI (Polysciences Inc.; Warrington, Pa.) in a 1:1 ratio diluted in Opti-MEM (Life Technologies Corp.; Grand Island, N.Y.) to assay for G protein activation as described previously (Rives, M.-L. et al. J. Biol. Chem. 2012, 287, 27050-4; Negri, A.; Rives, M.-L.; Caspers, M. J. et al. J. Chem. Inf. Model. 2013, 53, 521-526). Cells were maintained in the Dulbecco's Modified Eagle Medium (high glucose #11965; Life Technologies) supplemented with 10% FBS (Premium Select, Atlanta Biologicals; Atlanta, Ga.) and 100 U/mL penicillin and 100 μg/mL streptomycin (#15140, Life Technologies). After 24 hours the media was changed, and the experiment was performed 24 hours later (48 hours after transfection).
BRET. Transfected cells were dissociated and resuspended in phosphate-buffered saline (PBS). Approximately 200,000 cells/well were added to a black-framed, white well 96-well plate (#60050; Perkin Elmer; Waltham, Mass.). The microplate was centrifuged and the cells were resuspended in PBS. Then 5 μM of the luciferase substrate coelenterazine H was added to each well for 5 minutes. Following coelenterazine H addition, ligands were added and the BRET signal was measured at 5 minutes on a PHERAstar FS plate reader. Quantification of the BRET signal required calculating the ratio of the light emitted by the energy acceptor, mVenus (510-540 nm), over the light emitted by the energy donor, RLuc8 (485 nm). […] Dose response curves were fit using three-parameter logistics equation in GraphPad Prism 6.

T1 sequence (P35372 whole entry): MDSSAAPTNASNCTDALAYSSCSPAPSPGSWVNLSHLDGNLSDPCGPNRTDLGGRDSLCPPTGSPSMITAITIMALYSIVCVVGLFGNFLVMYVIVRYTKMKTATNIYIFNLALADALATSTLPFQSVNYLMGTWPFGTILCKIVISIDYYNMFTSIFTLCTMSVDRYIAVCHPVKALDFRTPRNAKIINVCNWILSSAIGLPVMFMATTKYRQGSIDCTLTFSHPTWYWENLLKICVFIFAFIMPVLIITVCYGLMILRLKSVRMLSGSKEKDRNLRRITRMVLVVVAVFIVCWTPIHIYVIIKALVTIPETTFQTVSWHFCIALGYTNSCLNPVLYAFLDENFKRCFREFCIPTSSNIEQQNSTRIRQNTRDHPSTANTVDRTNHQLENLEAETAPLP

Row | Structure (SMILES) | EC50
1 | CCOC(=O)CCCCCCNC1c2ccccc2S(=O)(=O)N(C)c2c(OC)cccc21 (stereo not shown) [compound 51, Ethyl 7-((7-methoxy-6-methyl-5,5-dioxido-6,11-dihydrodibenzo[c,f][1,2]thiazepin-11-yl)amino)heptanoate] | < 10 µM
2 | CN1c2ccccc2C(NCCCCCCC(N)=O)c2ccc(Cl)cc2S1(=O)=O (stereo not shown) [compound 52] | < 10 µM
3 | COCCCNC1c2ccccc2N(C)S(=O)(=O)c2cc(Br)ccc21 (stereo not shown) [compound 53, 3-Bromo-11-((3-methoxypropyl)amino)-6-methyl-6,11-dihydrodibenzo[c,f] [1,2]thiazepine 5,5-dioxide] | 0.0741 ± 0.0179 µM
4 | COCCCNC1c2ccccc2N(C)S(=O)(=O)c2cc(-c3ccccc3)ccc21 (stereo not shown) [compound 56, 11-((3-Methoxypropyl)amino)-6-methyl-3-phenyl-6,11-dihydrodibenzo[c,f][1,2]thiazepine 5,5-dioxide] | < 10 µM
5 | CN1c2ccccc2C(NCCCCCCC(=O)NCCO)c2ccc(Cl)cc2S1(=O)=O (stereo not shown) [compound 57, 7-((3-Chloro-6-methyl-5,5-dioxido-6,11-dihydrodibenzo [c,f][1,2]thiazepin-11-yl)amino)-N-(2-hydroxyethyl) heptanamide] | < 10 µM
6 | CN1c2ccccc2C(NCCCCCCC2=NCCO2)c2ccc(Cl)cc2S1(=O)=O (stereo not shown) [compound 58, 3-Chloro-11-((6-(4,5-dihydrooxazol-2-yl)hexyl)amino)-6-methyl-6,11-dihydrodibenzo[c,f][1,2]thiazepine 5,5-dioxide] | < 10 µM
7 | COCCCNC1c2ccccc2N(C)S(=O)(=O)c2cc(OC(C)=O)ccc21 (stereo not shown) [compound 59, 11-((3-Methoxypropyl)amino)-6-methyl-5,5-dioxido-6,11-dihydrodibenzo[c,f][1,2]thiazepin-3-yl acetate] | < 10 µM
8 | COCCCNC1c2ccccc2N(C)S(=O)(=O)c2ccc(Cl)cc21 (stereo not shown) [compound 60] | < 20 µM
9 | CCOC(=O)CCCCCCNC1c2ccccc2N(C)S(=O)(=O)c2ccc(Cl)cc21 (stereo not shown) [compound 61, Ethyl 7-((2-chloro-6-methyl-5,5-dioxido-6,11-dihydrodibenzo[c,f] [1,2]thiazepin-11-yl)amino)heptanoate] | < 10 µM
10 | COCCCNC1c2ccccc2N(C)S(=O)(=O)c2cc(SC(C)C)ccc21 (stereo not shown) [compound 63, 3-(Isopropylthio)-11-((3-methoxypropyl)amino)-6-methyl-6,11-dihydrodibenzo[c,f][1,2]thiazepine 5,5-dioxide] | < 10 µM
11 | CCSc1ccc2c(c1)S(=O)(=O)N(C)c1ccccc1C2NCCCOC (stereo not shown) [compound 64, 3-(Ethylthio)-11-((3-methoxypropyl)amino)-6-methyl-6,11-dihydrodibenzo[c,f][1,2]thiazepine 5,5-dioxide] | < 10 µM
12 | CCN1c2ccccc2C(NCCCOC)c2ccccc2S1(=O)=O (stereo not shown) [compound 65, 6-Ethyl-11-((3-methoxpropyl)amino)-6,11-dihydrodibenzo[c,f][1,2]thiazepine 5,5-dioxide] | > 20 µM
13 | CCOC(=O)CCCCCCNC1c2ccccc2N(CC)S(=O)(=O)c2ccccc21 (stereo not shown) [compound 66, Ethyl 7-((6-ethyl-5,5-dioxido-6,11-dihydrodibenzo[c,f][1,2]thiazepin-11-yl)amino)heptanoate] | < 10 µM
14 | COCCCNC1c2ccc(Cl)cc2N(C)S(=O)(=O)c2ccccc21 (stereo not shown) [compound 69, 8-Chloro-11-((3-methoxypropyl)amino)-6-methyl-6,11-dihydrodibenzo [c,f][1,2]thiazepine 5,5-dioxide] | < 20 µM
15 | CCOC(=O)CCCCCCNC1c2ccc(Cl)cc2N(C)S(=O)(=O)c2ccccc21 (stereo not shown) [compound 70, Ethyl 7-((8chloro-6-methyl-5,5-dioxido-6,11-dihydrodibenzo[c,f][1,2]thiazepin-11-yl)amino)heptanoate] | < 10 µM
16 | COCCCNC1c2ccc(Br)cc2S(=O)(=O)N(C)c2ccsc21 (stereo not shown) [compound 72, 7-Bromo-10-((3-methoxypropyl)amino)-4-methyl-4,10-dihydrobenzo[f]thieno[3,2-c][1,2]thiazepine 5,5-dioxide] | < 10 µM
17 | CCOCCCNC1c2ccc(Br)cc2S(=O)(=O)N(C)c2ccsc21 (stereo not shown) [compound 73, 7-Bromo-10-((3-ethoxypropyl)amino)-4-methyl-4,10-dihydrobenzo[f]thieno[3,2-c][1,2]thiazepine 5,5-dioxide] | < 10 µM
18 | CCOC(=O)CCCCCCNC1c2ccc(Br)cc2S(=O)(=O)N(C)c2ccsc21 (stereo not shown) [compound 74, Ethyl 7-((7-bromo-4-methyl-5,5-dioxido-4,10-dihydrobenzo[f]thieno[3,2-c][1,2]thiazepin-10-yl)amino)heptanoate] | < 10 µM
19 | CCOCCCNC1c2ccccc2N(C)S(=O)(=O)c2cc(I)ccc21 (stereo not shown) [compound 76, 11-((3-Ethoxypropyl)amino)-3-iodo-6-methyl-6,11-dihydrodibenzo [c,f][1,2]thiazepine 5,5-dioxide] | 0.145 µM
20 | COCCCNC1c2ccc(Cl)cc2S(=O)(=O)N(C)c2ccsc21 (stereo not shown) [compound 77, 7-Chloro-10-((3-methoxypropyl)amino)-4-methyl-4,10-dihydrobenzo[f]thieno[3,2-c][1,2]thiazepine 5,5-dioxide] | < 10 µM
21 | CCOCCCNC1c2ccc(Cl)cc2S(=O)(=O)N(C)c2ccsc21 (stereo not shown) [compound 78, 7-Chloro-10-((-ethoxypropyl)amino)-4-methyl-4,10-dihydrobenzo[f]thieno[3,2-c][1,2]thiazepine 5,5-dioxide] | < 10 µM
22 | CCOC(=O)CCCCCCNC1c2ccc(Cl)cc2S(=O)(=O)N(C)c2ccsc21 (stereo not shown) [compound 79, Ethyl 7-((7-chloro-4-methyl-5,5-dioxido-4,10-dihydrobenzo[f]thieno[3,2-c][1,2]thiazepin-10-yl)amino)heptanoate] | < 10 µM
23 | CCOC(=O)CCCCCCNC1c2ccccc2N(C)S(=O)(=O)c2cc(Br)ccc21 (stereo not shown) [compound 81, Ethyl 7-((3-bromo-6-methyl-5,5-dioxido-6,11-dihydrodibenzo [c,f] [1,2]thiazepin-11-yl)amino)heptanoate] | 0.573 µM
24 | CN1c2ccccc2C(NCCCCCCC(=O)O)c2ccc(Br)cc2S1(=O)=O (stereo not shown) [compound 82, 7-((3-Bromo-6-methyl-5,5-dioxido-6,11-dihydrodibenzo[c,f][1,2]thiazepin-11-yl)amino)heptanoic acid hydrochloride salt] | 0.122 µM
25 | CN1c2ccccc2C(NCCCO)c2ccc(Cl)cc2S1(=O)=O (stereo not shown) [compound 83, 3-Chloro-11-((3-hydroxypropyl)amino)-6-methyl-6,11-dihydrodibenzo[c,f][1,2] iazepine 5,5-dioxide] | 1.81 µM

Same assay, conditions: BRET G protein activation, HEK-293T; mean ± SEM of independent trials; read-out: EC50 Human MOR

Row | Structure (SMILES) | EC50
26 | CCOC(=O)CCCCCCNC1c2ccccc2S(=O)(=O)N(C)c2c(O)cccc21 (stereo not shown) [compound 62] | > 20 µM
27 | CCOCCCNC1c2ccccc2N(C)S(=O)(=O)c2cc(Br)ccc21 (stereo not shown) [compound 71, 3-Bromo-11-((3-ethoxypropyl)amino)-6-methyl-6,11-dihydrodibenzo [c,f][1,2]thiazepine 5,5-dioxide] | 0.222 ± 0.078 µM
28 | COCCCNC1c2ccccc2N(C)S(=O)(=O)c2cc(OCc3ccccc3)ccc21 (stereo not shown) [compound 75, 3-(Benzyloxy)-11-((3-methoxypropyl)amino)-6-methyl-6,11-dihydrodibenzo[c,f][1,2]thiazepine 5,5-dioxide] | > 20 µM
